Converted amounts (≈) assume the structure as drawn. Read-outs that look alike come from different tables or passages of the source.
How the values were obtained:
Staphylococcus aureus = experiment: MIC, broth microdilution (CLSI M07-A9); assay type: cell-based; conditions: for MIC90: with reducing agent
[1] = test system: Staphylococcus aureus (MRSA and MSSA strains); experiment: Time kill assay, single agents at 1×MIC (CLSI); assay type: cell-based; conditions: 1×MIC; 20 MSSA and 42 MRSA strains
MRSA S. aureus strains = experiment: Dual agent MIC assay (PlySs2 and daptomycin together, broth microdilution); assay type: cell-based; conditions: for MIC combo: PlySs2 and daptomycin combined; for MIC: Staphylococcus aureus, MRSA
S. aureus [2] = experiment: Cell envelope binding of BODIPY-fluorescein-labeled antibiotics; assay type: cell-based
Experimental: As a complement to the synergy studies, daptomycin and vancomycin cell envelope-binding was examined using BODIPY-fluorescein-labeled antibiotics in the presence and absence of sub-MIC levels of CF-301. […] Similarly, cell wall-labeling with vancomycin occurs within 5 minutes in the presence of CF-301 (⅛^th MIC) versus 30 minutes without CF-301 (FIG. 20B). For both antibiotics, the labeling was first observed at bacterial division planes.

[3] = test system: MRSA strain MW2 and MSSA strain ATCC 29213; experiment: MIC in the presence of surfactant (Survanta), broth microdilution; assay type: cell-based, Staphylococcus aureus
MRSA strain 269 (MW2) = experiment: Combination MIC study in the presence of 15% surfactant (Survanta); assay type: cell-based, Staphylococcus aureus; conditions: PlySs2 plus daptomycin
S. aureus [4] = experiment: Murine bacteremia model, survival; assay type: in vivo, BALB/c mice
[5] = test system: MRSA strain ATCC 700699 and MSSA strain ATCC 25923; experiment: microbe, parasite or virus in culture; assay type: cell-based, Staphylococcus aureus; conditions: Staphylococcus aureus
[6] = test system: MRSA Staphylococcus aureus strain (MW2); experiment: microbe, parasite or virus in culture; assay type: cell-based; conditions: for MIC: Staphylococcus aureus, MRSA
[7] = high challenge (10^9 CFU MRSA MW2), dosing at 2 hours, daptomycin 50 mg/kg once daily, PlySs2 5.25 mg/kg (FIG. 27B)

With `CCCCCCCCCC(=O)N[C@@H](Cc1c[nH]c2ccccc12)C(=O)N[C@H](CC(N)=O)C(=O)N[C@@H](CC(=O)O)C(=O)N[C@@H]1C(=O)NCC(=O)N[C@@H](CCCN)C(=O)N[C@@H](CC(=O)O)C(=O)N[C@H](C)C(=O)N[C@@H](CC(=O)O)C(=O)NCC(=O)N[C@H](CO)C(=O)N[C@@H]([C@H](C)CC(=O)O)C(=O)N[C@@H](CC(=O)c2ccccc2N)C(=O)O[C@@H]1C` [Daptomycin] the MIC90 (Staphylococcus aureus; DRSA (n = 8)) was 16, the MIC90 (Staphylococcus aureus; LRSA (n = 5)) was 1 and the MIC90 (Staphylococcus aureus; MRSA (n = 45)) was 1. The MIC90 (Staphylococcus aureus; MSSA (n-28)) was 1, the MIC90 (Staphylococcus aureus; Staphylococcus aureus, DRSA (n = 8), read-out: MIC90) was 9.9 µM (≈ 16 µg/mL) and the MIC90 (Staphylococcus aureus; Staphylococcus aureus, LRSA (n = 5), read-out: MIC90) was 0.6 µM (≈ 0.972 µg/mL). For the same compound, the MIC90 (Staphylococcus aureus; Staphylococcus aureus, MRSA, MRSA (n = 45), read-out: MIC90) was 0.6 µM (≈ 0.972 µg/mL), the MIC90 (Staphylococcus aureus; Staphylococcus aureus, MSSA, MSSA (n-28), read-out: MIC90) was 0.6 µM (≈ 0.972 µg/mL) and the MIC90 (Staphylococcus aureus; Staphylococcus aureus, VISA, VISA (n = 10), read-out: MIC90) was 4.9 µM (≈ 7.94 µg/mL). The MIC90 (Staphylococcus aureus; Staphylococcus aureus, VRSA, VRSA (n = 14), read-out: MIC90) was 0.6 µM (≈ 0.972 µg/mL), the MIC90 (Staphylococcus aureus; VISA (n = 10)) was 8 and the MIC90 (Staphylococcus aureus; VRSA (n = 14)) was 1. The “time to reach bactericidal levels (≥3-log10 reduction in CFUs)” value [1] was 6 hours, the Fold reduction (MRSA S. aureus strains; MRSA strain 223) was 128 and the MIC combo (MRSA S. aureus strains; MRSA strain 223) was 0.0075 µg/mL. For the same compound, the Fold reduction (MRSA S. aureus strains; MRSA strain 241) was 256, the MIC combo (MRSA S. aureus strains; MRSA strain 241) was 0.0037 µg/mL and the Fold reduction (MRSA S. aureus strains; MRSA strain 263) was 128. It also gave an MIC combo (MRSA S. aureus strains; MRSA strain 263) of 0.0075 µg/mL, a Fold reduction (MRSA S. aureus strains; MRSA strain 269 (MW2)) of 64 and an MIC combo (MRSA S. aureus strains; MRSA strain 269 (MW2)) of 0.015 µg/mL. The Fold reduction (MRSA S. aureus strains; MRSA strain 270) was 64, the MIC combo (MRSA S. aureus strains; MRSA strain 270) was 0.015 µg/mL and the Fold reduction (MRSA S. aureus strains; MRSA strain 553) was 128. The MIC combo (MRSA S. aureus strains; MRSA strain 553) was 0.0075 µg/mL, the Fold reduction (MRSA S. aureus strains; MRSA strain 650) was 64 and the MIC combo (MRSA S. aureus strains; MRSA strain 650) was 0.015 µg/mL. The Fold reduction (MRSA S. aureus strains; MRSA strain 827) was 128, the MIC combo (MRSA S. aureus strains; MRSA strain 827) was 0.0075 µg/mL and the Fold reduction (MRSA S. aureus strains; MRSA strain 828) was 128. For the same compound, the MIC combo (MRSA S. aureus strains; MRSA strain 828) was 0.0075 µg/mL, the Fold reduction (MRSA S. aureus strains; MRSA strain 829) was 128 and the MIC combo (MRSA S. aureus strains; MRSA strain 829) was 0.0075 µg/mL. The Fold reduction (MRSA S. aureus strains; MRSA strain 830) was 64, the MIC combo (MRSA S. aureus strains; MRSA strain 830) was 0.015 µg/mL and the Fold reduction (MRSA S. aureus strains; MRSA strain 833) was 128. The MIC combo (MRSA S. aureus strains; MRSA strain 833) was 0.0075 µg/mL, the “fold reduction in the effective MIC” value (MRSA S. aureus strains; PlySs2 and daptomycin together, a dozen MRSA strains) was 16-256 fold and the MIC (MRSA S. aureus strains; MRSA strain 223, single-agent, read-out: MIC alone) was 1 µg/mL (≈ 0.617 µM). For the same compound, the MIC (MRSA S. aureus strains; MRSA strain 241, single-agent, read-out: MIC alone) was 1 µg/mL (≈ 0.617 µM), the MIC (MRSA S. aureus strains; MRSA strain 263, single-agent, read-out: MIC alone) was 1 µg/mL (≈ 0.617 µM) and the MIC (MRSA S. aureus strains; MRSA strain 269 (MW2), single-agent, read-out: MIC alone) was 1 µg/mL (≈ 0.617 µM). It also gave an MIC (MRSA S. aureus strains; MRSA strain 270, single-agent, read-out: MIC alone) of 1 µg/mL (≈ 0.617 µM), an MIC (MRSA S. aureus strains; MRSA strain 553, single-agent, read-out: MIC alone) of 1 µg/mL (≈ 0.617 µM) and an MIC (MRSA S. aureus strains; MRSA strain 650, single-agent, read-out: MIC alone) of 1 µg/mL (≈ 0.617 µM). The MIC (MRSA S. aureus strains; MRSA strain 827, single-agent, read-out: MIC alone) was 1 µg/mL (≈ 0.617 µM), the MIC (MRSA S. aureus strains; MRSA strain 828, single-agent, read-out: MIC alone) was 1 µg/mL (≈ 0.617 µM) and the MIC (MRSA S. aureus strains; MRSA strain 829, single-agent, read-out: MIC alone) was 1 µg/mL (≈ 0.617 µM). It also gave an MIC (MRSA S. aureus strains; MRSA strain 830, single-agent, read-out: MIC alone) of 1 µg/mL (≈ 0.617 µM), an MIC (MRSA S. aureus strains; MRSA strain 833, single-agent, read-out: MIC alone) of 1 µg/mL (≈ 0.617 µM) and an MIC (MRSA S. aureus strains; daptomycin as single agent, read-out: MIC) of 1 µg/mL (≈ 0.617 µM). For the same compound, the MIC (MRSA S. aureus strains; daptomycin with 0.25× MIC PlySs2, read-out: MIC) was 0.0075 µg/mL (≈ 0.00463 µM), the “decrease of MIC” value (MRSA S. aureus strains; daptomycin with 0.25× MIC PlySs2) was 128 fold and the “degree of potency enhancement” value (MRSA S. aureus strains; daptomycin with PlySs2, across 12 MRSA strains) was 64 to 256 fold. For the same compound, the “time to antibiotic penetration (BODIPY-labeled daptomycin binding)” value (S. aureus [2]; in the presence of CF-301 at 1/32nd MIC) was 15 min, the “time to antibiotic penetration (BODIPY-labeled daptomycin binding)” value (S. aureus [2]; without CF-301) was 180 min and the “inhibition of MIC by surfactant” value ([3]; Survanta, up to 15%) was “up to 256 fold”. For the same compound, the “inhibition of MIC by surfactant” value ([3]; surfactant concentration of 1.25%) was “more than 20 fold”, the “effective concentration in combination as fraction of MIC” value (MRSA strain 269 (MW2)) was 1/1024 and the “most dilute concentration in combination that still inhibits growth” value (MRSA strain 269 (MW2)) was 0.25 µg/mL. The “24 hour survival rate” value (S. aureus [4]; [7]) was 47%, the “72 hour survival rate” value (S. aureus [4]; [7]) was 31% and the “survival at 72 hours” value (S. aureus [4]; low challenge model (up to 7×10^6 CFU MRSA MW2), single dose at 4 hours, PlySs2 1.25 mg/kg, daptomycin 2 mg/kg) was 23%. The MIC ([5]; 504 h, read-out: MIC in daptomycin resistant clones) was 18 µg/mL (≈ 11.1 µM), the MIC ([5]; read-out: MIC before daptomycin resistance selection) was 1 µg/mL (≈ 0.617 µM) and the MIC ([6]; read-out: daptomycin MIC, ending values, passaged with PlySs2 (4 ug/ml) plus daptomycin, 30-day study) was 4 µg/mL. For the same compound, the MIC ([6]; read-out: daptomycin MIC, ending values, three daptomycin-only cultures, 30-day study) was 128 µg/mL (≈ 79 µM), the “antibiotic MIC, starting value” ([6]; before serial passage) was 1 µg/mL and the “increase of daptomycin MIC” value ([6]; daptomycin-only cultures, 30-day study) was 64 to 128 fold. The “increase of daptomycin MIC” value ([6]; passaged with PlySs2 (4 ug/ml) plus daptomycin) was 4 fold and the “daptomycin MIC, ending values” ([6]; three daptomycin-only cultures, 30-day study) was 64 µg/mL.

`CC(=O)NC[C@H]1CN(c2ccc(N3CCOCC3)c(F)c2)C(=O)O1` [Linezolid] was tested, and the MIC50/90 (Staphylococcus aureus; DRSA (n = 8)) was 2, the “MIC50/90 [uM]” value (Staphylococcus aureus; DRSA (n = 8)) was 5.7 µM (≈ 1.92 µg/mL) and the MIC50/90 (Staphylococcus aureus; LRSA (n = 5)) was >64. The “MIC50/90 [uM]” value (Staphylococcus aureus; LRSA (n = 5)) was >183 µM, the MIC50/90 (Staphylococcus aureus; MRSA (n = 45)) was 2 and the “MIC50/90 [uM]” value (Staphylococcus aureus; MRSA (n = 45)) was 5.7 µM (≈ 1.92 µg/mL). The MIC50/90 (Staphylococcus aureus; MSSA (n-28)) was 2, the “MIC50/90 [uM]” value (Staphylococcus aureus; MSSA (n-28)) was 5.7 µM (≈ 1.92 µg/mL) and the MIC50/90 (Staphylococcus aureus; VISA (n = 10)) was 2. For the same compound, the “MIC50/90 [uM]” value (Staphylococcus aureus; VISA (n = 10)) was 5.7 µM (≈ 1.92 µg/mL), the MIC50/90 (Staphylococcus aureus; VRSA (n = 14)) was 2 and the “MIC50/90 [uM]” value (Staphylococcus aureus; VRSA (n = 14)) was 5.7 µM (≈ 1.92 µg/mL).
